As usually defined, the EC50 is the concentration at which the effect is half-maximal. Read a high EC50 as a less potent agent.

Our source for the EC50 values is publication doi:10.1101/2023.10.24.563883v2 (biorxiv, 2024).

The test concerns the target T1, LPHN2 (Homo sapiens, UniProt O95490).
T1 sequence (O95490 26-1459): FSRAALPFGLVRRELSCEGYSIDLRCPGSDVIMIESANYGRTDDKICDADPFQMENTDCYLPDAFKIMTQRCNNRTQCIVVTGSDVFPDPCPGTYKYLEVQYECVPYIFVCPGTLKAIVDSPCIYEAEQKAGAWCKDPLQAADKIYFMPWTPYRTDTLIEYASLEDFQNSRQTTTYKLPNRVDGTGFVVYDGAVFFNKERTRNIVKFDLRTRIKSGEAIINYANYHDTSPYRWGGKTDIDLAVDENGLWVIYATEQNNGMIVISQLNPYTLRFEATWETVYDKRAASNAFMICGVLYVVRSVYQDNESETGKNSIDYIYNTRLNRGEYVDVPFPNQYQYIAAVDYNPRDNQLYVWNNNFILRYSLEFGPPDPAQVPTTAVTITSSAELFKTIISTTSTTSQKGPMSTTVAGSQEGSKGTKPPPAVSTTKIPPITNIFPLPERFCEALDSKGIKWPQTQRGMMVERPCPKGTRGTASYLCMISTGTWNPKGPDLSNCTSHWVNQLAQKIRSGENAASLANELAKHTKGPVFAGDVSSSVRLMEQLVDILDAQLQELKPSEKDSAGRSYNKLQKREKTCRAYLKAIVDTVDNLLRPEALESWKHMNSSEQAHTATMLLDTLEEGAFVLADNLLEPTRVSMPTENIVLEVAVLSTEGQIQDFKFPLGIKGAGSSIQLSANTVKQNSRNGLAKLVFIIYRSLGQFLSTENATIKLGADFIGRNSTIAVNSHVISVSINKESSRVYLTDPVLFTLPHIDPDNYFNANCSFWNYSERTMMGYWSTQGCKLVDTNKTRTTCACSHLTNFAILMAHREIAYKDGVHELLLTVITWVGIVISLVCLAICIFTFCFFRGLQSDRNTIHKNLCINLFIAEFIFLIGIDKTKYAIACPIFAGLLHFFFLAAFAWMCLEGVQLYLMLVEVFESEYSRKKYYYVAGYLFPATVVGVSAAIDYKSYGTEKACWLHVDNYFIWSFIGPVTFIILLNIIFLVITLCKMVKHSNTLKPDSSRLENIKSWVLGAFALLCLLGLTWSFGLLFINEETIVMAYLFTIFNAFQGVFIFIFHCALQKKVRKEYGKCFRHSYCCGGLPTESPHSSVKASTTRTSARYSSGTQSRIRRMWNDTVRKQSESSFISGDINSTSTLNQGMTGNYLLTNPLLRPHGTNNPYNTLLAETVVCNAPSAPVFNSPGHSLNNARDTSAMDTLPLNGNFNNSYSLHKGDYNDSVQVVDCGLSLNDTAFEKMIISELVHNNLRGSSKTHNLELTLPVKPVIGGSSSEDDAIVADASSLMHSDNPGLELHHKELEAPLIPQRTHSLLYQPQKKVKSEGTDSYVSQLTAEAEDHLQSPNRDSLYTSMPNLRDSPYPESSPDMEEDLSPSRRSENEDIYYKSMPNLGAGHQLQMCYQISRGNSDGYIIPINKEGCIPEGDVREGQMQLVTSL
The experiment in a line: BRET G protein. The class given is cell-based. (In BRET a luciferase serves as donor, and the signal depends on an acceptor being close.)

Each structure is given as a SMILES string.

As to `COc1ccc(OC)c(NC2=NC(=O)CC(C(=O)Nc3cc(C(F)(F)F)ccc3Cl)S2)c1` (stereo not shown) [D11], the EC50 was 39.9 ± 16.2 nM.
